This note sets out measurements from patent publication US12570662B2, “Substituted pyrrolo[1,2-b]pyridazines as bifunctional degraders of interleukin-1 receptor-associated kinases” (Nurix Therapeutics, Inc., priority 2021, dated 2026).

In the assay the target is T1, IRAK4 (Homo sapiens, UniProt Q9NWZ3).
T1 construct: C-terminal HiBiT-tagged Jurkat cells (polyclonal cell line or clone 8D5); endogenous in cells; host or cells: Jurkat cells (polyclonal cell line or clone 8D5), HiBiT-tagged
T1 sequence (Q9NWZ3 1-460): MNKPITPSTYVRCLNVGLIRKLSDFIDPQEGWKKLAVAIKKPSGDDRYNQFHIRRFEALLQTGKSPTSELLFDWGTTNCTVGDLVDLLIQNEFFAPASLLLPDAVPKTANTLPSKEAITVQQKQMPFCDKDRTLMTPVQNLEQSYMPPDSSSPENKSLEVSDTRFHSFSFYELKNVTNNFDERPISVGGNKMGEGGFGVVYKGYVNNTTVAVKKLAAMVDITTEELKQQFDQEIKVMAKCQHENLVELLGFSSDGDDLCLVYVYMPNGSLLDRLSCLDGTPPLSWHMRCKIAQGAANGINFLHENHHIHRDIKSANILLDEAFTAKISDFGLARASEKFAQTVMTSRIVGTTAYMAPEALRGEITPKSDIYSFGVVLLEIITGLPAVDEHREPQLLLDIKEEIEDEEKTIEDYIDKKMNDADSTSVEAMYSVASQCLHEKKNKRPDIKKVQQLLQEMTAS
Description: IRAK4 Degradation HiBit Assay. The assay is classed as cell-based. The note with it: C-terminal HiBiT-tagged Jurkat cells, 4 hrs incubation; for DC50: % IRAK4 remaining, four-parameter fit (IC50 used as DC50); for Dmax: from fit of % IRAK4 remaining, read-out: Dmax. A digest of the protocol: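 Jurkat cells carrying C-terminal HiBiT-tagged IRAK4 (polyclonal or clone 8D5) exposed to compound, 10 μM–0.1 nM final over 11 points, for 4 h at 32 °C. Remaining IRAK4 measured by lytic HiBiT/LgBiT luminescence relative to DMSO. DC50 and Dmax taken from four-parameter variable-slope fits.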
Background: HiBiT is a short tag that completes a luciferase, so light tracks the accessible tagged protein.

The term DC50 denotes the midpoint of the concentration-degradation curve. A low value points to a more potent degrader. The term Dmax denotes the greatest extent of degradation seen. `CNc1cc(-c2ccc3cc(C#N)cnn23)ncc1-c1nnc(N2CC3CCC(C2)N3C(=O)C2CCN(c3ccc([C@H]4CCC(=O)NC4=O)cn3)CC2)s1` (racemic) [Example 46, rac-7-(5-{5-[8-(1-{5-[(3R)-2,6-dioxopiperidin-3-yl]pyridin-2-yl}piperidine-4-carbonyl)-3,8-diazabicyclo[3.2.1]octan-3-yl]-1,3,4-thiadiazol-2-yl}-4-(methylamino)pyridin-2-yl)pyrrolo[1,2-b]pyridazine-3-carbonitrile]: the 50% degradation concentration (DC50) is 6 nM and the Dmax is 111%.
`CNc1cc(-c2ccc3cc(C#N)cnn23)ncc1-c1nnc(C23CCC(NC(=O)C4CCN(c5ccc(C6CCC(=O)NC6=O)cn5)CC4)(CC2)CC3)s1` (racemic) [Example 47, rac-N-{4-[5-(6-{3-cyanopyrrolo[1,2-b]pyridazin-7-yl}-4-(methylamino)pyridin-3-yl)-1,3,4-thiadiazol-2-yl]bicyclo[2.2.2]octan-1-yl}-1-{5-[(3R)-2,6-dioxopiperidin-3-yl]pyridin-2-yl}piperidine-4-carboxamide]: half-maximal degradation (DC50) was put at 15 nM and the Dmax is 111%.
The like results for `CC(C)Nc1cc(-c2ccc3cc(C#N)cnn23)ncc1-c1nnc(N2CCN(C(=O)C3CCN(c4ccc(C5CCC(=O)NC5=O)cn4)CC3)CC2)s1` (racemic) [Example 48, rac-7-(5-{5-[4-(1-{5-[(3R)-2,6-dioxopiperidin-3-yl]pyridin-2-yl}piperidine-4-carbonyl)piperazin-1-yl]-1,3,4-thiadiazol-2-yl}-4-[(propan-2-yl)amino]pyridin-2-yl)pyrrolo[1,2-b]pyridazine-3-carbonitrile] were, in that order, 23 nM and 109%.
On the same counts, the results for `CNc1cc(-c2ccc3cc(C#N)cnn23)ncc1-c1nnc([C@H]2CC[C@H](N(C)C(=O)C3CCN(c4ccc([C@@H]5CCC(=O)NC5=O)cn4)CC3)CC2)s1` (racemic) [Example 49, 1-{5-[(3RS)-2,6-dioxopiperidin-3-yl]pyridin-2-yl}-N-methyl-N-[(1r,4r)-4-[5-(6-{3-cyanopyrrolo[1,2-b]pyridazin-7-yl}-4-(methylamino)pyridin-3-yl)-1,3,4-thiadiazol-2-yl]cyclohexyl]piperidine-4-carboxamide] are 13 nM and 112%.
The like results for `CNc1cc(-c2ccc3cc(C#N)cnn23)ncc1-c1nnc(N2CCC(N3CCN(CC4CCN(c5ccc(C6CCC(=O)NC6=O)cn5)CC4)CC3)CC2)s1` (racemic) [Example 50, 7-[5-(5-{4-[4-({1-[5-(2,6-dioxopiperidin-3-yl)pyridin-2-yl]piperidin-4-yl}methyl)piperazin-1-yl]piperidin-1-yl}-1,3,4-thiadiazol-2-yl)-4-(methylamino)pyridin-2-yl]pyrrolo[1,2-b]pyridazine-3-carbonitrile] were, in that order, 91 nM and 111%.
`CNc1cc(-c2ccc3cc(C#N)cnn23)ncc1-c1nnc(N2CCN(C(=O)C3CCN(c4ccc(C5CCC(=O)NC5=O)cn4)CC3)CC2)s1` (racemic) [Example 51, 7-{5-[5-(4-{1-[5-(2,6-dioxopiperidin-3-yl)pyridin-2-yl]piperidine-4-carbonyl}piperazin-1-yl)-1,3,4-thiadiazol-2-yl]-4-(methylamino)pyridin-2-yl}pyrrolo[1,2-b]pyridazine-3-carbonitrile]: half-maximal degradation (DC50) was put at 10 nM and the Dmax came to 112%.
As to `CNc1cc(-c2ccc3cc(C#N)cnn23)ncc1-c1nnc([C@H]2CC[C@H](N(C)CC3CCN(c4ccc([C@@H]5CCC(=O)NC5=O)cn4)CC3)CC2)s1` (racemic) [Example 52, 7-[4-(methylamino)-5-{5-[(1r,4r)-4-{[(1-{5-[(3RS)-2,6-dioxopiperidin-3-yl]pyridin-2-yl}piperidin-4-yl)methyl](methyl)amino}cyclohexyl]-1,3,4-thiadiazol-2-yl}pyridin-2-yl]pyrrolo[1,2-b]pyridazine-3-carbonitrile], the DC50 was determined as 19 nM and the Dmax stood at 113%.
The like results for `CNc1cc(-c2ccc3cc(C#N)cnn23)ncc1-c1nnc(N2CCN(C3CCN(CC4CCN(c5ccc(C6CCC(=O)NC6=O)cn5)CC4)CC3)CC2)s1` (racemic) [Example 53, rac-7-{5-[5-(4-{1-[(1-{5-[(3R)-2,6-dioxopiperidin-3-yl]pyridin-2-yl}piperidin-4-yl)methyl]piperidin-4-yl}piperazin-1-yl)-1,3,4-thiadiazol-2-yl]-4-(methylamino)pyridin-2-yl}pyrrolo[1,2-b]pyridazine-3-carbonitrile] were, in that order, 64 nM and 114%.
The like results for `CNc1cc(-c2ccc3cc(C#N)cnn23)ncc1-c1nnc(N2CCC(C3CCN(CC4CCN(c5ccc(C6CCC(=O)NC6=O)cn5)CC4)CC3)CC2)s1` (racemic) [Example 54, rac-7-[5-(5-{1′-[(1-{5-[(3R)-2,6-dioxopiperidin-3-yl]pyridin-2-yl}piperidin-4-yl)methyl]-[4,4′-bipiperidin]-1-yl}-1,3,4-thiadiazol-2-yl)-4-(methylamino)pyridin-2-yl]pyrrolo[1,2-b]pyridazine-3-carbonitrile] were, in that order, 95 nM and 112%.
In the case of `CNc1cc(-c2ccc3cc(C#N)cnn23)ncc1-c1nnc(N2CC3(CCN(CC4CCN(c5ccc(C6CCC(=O)NC6=O)cn5)CC4)CC3)C2)s1` (racemic) [Example 55, rac-7-[5-(5-{7-[(1-{5-[(3R)-2,6-dioxopiperidin-3-yl]pyridin-2-yl}piperidin-4-yl)methyl]-2,7-diazaspiro[3.5]nonan-2-yl}-1,3,4-thiadiazol-2-yl)-4-(methylamino)pyridin-2-yl]pyrrolo[1,2-b]pyridazine-3-carbonitrile], the DC50 worked out at 61 nM and the Dmax was found to be 109%.
Take `CC(C)Nc1cc(-c2ccc3cc(C#N)cnn23)ncc1-c1nnc(N2CCN(CC3CCN(c4ccc(C5CCC(=O)NC5=O)cn4)CC3)CC2)s1` (racemic) [Example 56, rac-7-[5-(5-{4-[(1-{5-[(3R)-2,6-dioxopiperidin-3-yl]pyridin-2-yl}piperidin-4-yl)methyl]piperazin-1-yl}-1,3,4-thiadiazol-2-yl)-4-[(propan-2-yl)amino]pyridin-2-yl]pyrrolo[1,2-b]pyridazine-3-carbonitrile]: the DC50 amounted to 160 nM and the Dmax is 102%.
Consider `N#Cc1cnn2c(-c3cc(NC4CCOCC4)c(-c4nnc(C56CCC(C(=O)N7CCc8cc(C9CCC(=O)NC9=O)ccc8C7)(CC5)CC6)s4)cn3)ccc2c1` (racemic) [Example 57, rac-7-{5-[5-(4-{6-[(3R)-2,6-dioxopiperidin-3-yl]-1,2,3,4-tetrahydroisoquinoline-2-carbonyl}bicyclo[2.2.2]octan-1-yl)-1,3,4-thiadiazol-2-yl]-4-[(oxan-4-yl)amino]pyridin-2-yl}pyrrolo[1,2-b]pyridazine-3-carbonitrile], for which the DC50 is 71 nM and the Dmax amounted to 104%.
Take `CC1(Nc2cc(-c3ccc4cc(C#N)cnn34)ncc2-c2nnc(N3CCN(CC4CCN(c5ccc(C6CCC(=O)NC6=O)cn5)CC4)CC3)s2)COC1` (racemic) [Example 58, rac-7-[5-(5-{4-[(1-{5-[(3R)-2,6-dioxopiperidin-3-yl]pyridin-2-yl}piperidin-4-yl)methyl]piperazin-1-yl}-1,3,4-thiadiazol-2-yl)-4-[(3-methyloxetan-3-yl)amino]pyridin-2-yl]pyrrolo[1,2-b]pyridazine-3-carbonitrile]: it took 21 nM to reach half-maximal degradation (DC50) and the Dmax came out at 113%.
The like results for `N#CCNc1cc(-c2ccc3cc(C#N)cnn23)ncc1-c1nnc(N2CCN(CC3CCN(c4ccc(C5CCC(=O)NC5=O)cn4)CC3)CC2)s1` (racemic) [Example 59, rac-7-{4-[(cyanomethyl)amino]-5-(5-{4-[(1-{5-[(3R)-2,6-dioxopiperidin-3-yl]pyridin-2-yl}piperidin-4-yl)methyl]piperazin-1-yl}-1,3,4-thiadiazol-2-yl)pyridin-2-yl}pyrrolo[1,2-b]pyridazine-3-carbonitrile] were, in that order, 7 nM and 120%.
The like results for `N#Cc1cnn2c(-c3cc(NC4COC4)c(-c4nnc(N5CCN(CC6CCN(c7ccc(C8CCC(=O)NC8=O)cn7)CC6)CC5)s4)cn3)ccc2c1` (racemic) [Example 61, rac-7-[5-(5-{4-[(1-{5-[(3R)-2,6-dioxopiperidin-3-yl]pyridin-2-yl}piperidin-4-yl)methyl]piperazin-1-yl}-1,3,4-thiadiazol-2-yl)-4-[(oxetan-3-yl)amino]pyridin-2-yl]pyrrolo[1,2-b]pyridazine-3-carbonitrile] were, in that order, 18 nM and 111%.
On the same counts, the results for `CC(C)Nc1cc(-c2ccc3cc(C#N)cnn23)ncc1-c1nnc(N2CCN(CC3CCN(c4ccc(C5CCC(=O)NC5=O)cc4)CC3)CC2)s1` (racemic) [Example 64, rac-7-[5-(5-{4-[(1-{4-[(3R)-2,6-dioxopiperidin-3-yl]phenyl}piperidin-4-yl)methyl]piperazin-1-yl}-1,3,4-thiadiazol-2-yl)-4-[(propan-2-yl)amino]pyridin-2-yl]pyrrolo[1,2-b]pyridazine-3-carbonitrile] are 123 nM and 76%.
